Experimental data: PubChem BioAssay (NCI)
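Briefly, cells in 96-well plates were exposed to five compound concentrations for 48 h, and endpoints were estimated by linear interpolation. At the TGI there is no net growth.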

Tests used:
Test in all cases: NCI-60 cell line screen, 48 h
[1] = tested on: IGROV1 ovarian
[2] = tested on: UO-31 renal
[3] = tested on: KM12 colon
[4] = tested on: UACC-257 melanoma
[5] = tested on: OVCAR-8 ovarian
[6] = tested on: EKVX NSCLC
[7] = tested on: MDA-MB-231 breast
[8] = tested on: ACHN renal
[9] = tested on: A549 NSCLC
[10] = tested on: SF-295 CNS
[11] = tested on: SNB-19 CNS
[12] = tested on: MDA-MB-435
[13] = tested on: K-562 leukemia
[14] = tested on: U251 CNS
[15] = tested on: HT29 colon
[16] = tested on: MDA-N
[17] = tested on: A498 renal
[18] = tested on: MALME-3M melanoma
[19] = tested on: DU-145 prostate
[20] = tested on: T-47D breast
[21] = tested on: HCT-15 colon
[22] = tested on: NCI-H460 lung
[23] = tested on: OVCAR-5 ovarian
[24] = tested on: SR leukemia
[25] = tested on: SK-MEL-5 melanoma
[26] = tested on: SK-MEL-2 melanoma
[27] = tested on: SNB-75 CNS
[28] = tested on: MCF7 breast
[29] = tested on: HOP-92 NSCLC
[30] = tested on: HL-60(TB) leukemia
[31] = tested on: MOLT-4 leukemia
[32] = tested on: TK-10 renal
[33] = tested on: CCRF-CEM leukemia
[34] = tested on: HCC-2998 colon
[35] = tested on: UACC-62 melanoma
[36] = tested on: M14 melanoma
[37] = tested on: HS 578T breast
[38] = tested on: SW-620 colon
[39] = tested on: HOP-62 NSCLC
[40] = tested on: OVCAR-3 ovarian
[41] = tested on: NCI-H226 lung
[42] = tested on: LOX IMVI melanoma
[43] = tested on: SK-MEL-28 melanoma
[44] = tested on: SN12C renal
[45] = tested on: SF-539 CNS
[46] = tested on: PC-3 prostate
[47] = tested on: SF-268 CNS
[48] = tested on: SK-OV-3 ovarian
[49] = tested on: 786-0 renal
[50] = tested on: RXF 393 renal
[51] = tested on: NCI-H23 lung
[52] = tested on: BT-549 breast
[53] = tested on: COLO 205 colon
[54] = tested on: NCI-H522 lung
[55] = tested on: CAKI-1 renal
[56] = tested on: OVCAR-4 ovarian
[57] = tested on: HCT-116 colon
[58] = tested on: RPMI-8226 leukemia
[59] = tested on: NCI/ADR-RES ovarian

## O=C1C=C(N2CCCC2)C(=O)c2c(O)ccc(O)c21
[1]
  TGI: > 10 µM
[2]
  TGI: > 10 µM
[3]
  TGI: > 10 µM
[4]
  TGI: > 10 µM
[5]
  TGI: > 10 µM
[6]
  TGI: > 10 µM
[7]
  TGI: > 10 µM
[8]
  TGI: > 10 µM
[9]
  TGI: > 10 µM
[10]
  TGI: > 10 µM
[11]
  TGI: > 10 µM
[12]
  TGI: > 1 µM
[13]
  TGI: > 10 µM
[14]
  TGI: > 1 µM
[15]
  TGI: > 10 µM
[16]
  TGI: > 10 µM
[17]
  TGI: > 10 µM
[18]
  TGI: > 10 µM
[19]
  TGI: > 10 µM
[20]
  TGI: > 10 µM
[21]
  TGI: > 10 µM
[22]
  TGI: > 10 µM
[23]
  TGI: > 10 µM
[24]
  TGI: > 1 µM
[25]
  TGI: > 10 µM
[26]
  TGI: > 10 µM
[27]
  TGI: > 10 µM
[28]
  TGI: > 10 µM
[29]
  TGI: > 10 µM
[30]
  TGI: > 10 µM
[31]
  TGI: > 10 µM
[32]
  TGI: > 10 µM
[33]
  TGI: 5.19 µM
[34]
  TGI: > 10 µM
[35]
  TGI: > 10 µM
[36]
  TGI: > 10 µM
[37]
  TGI: > 10 µM
[38]
  TGI: > 10 µM
[39]
  TGI: > 10 µM
[40]
  TGI: > 10 µM
[41]
  TGI: > 10 µM
[42]
  TGI: > 10 µM
[43]
  TGI: > 10 µM
[44]
  TGI: > 10 µM
[45]
  TGI: > 10 µM
[46]
  TGI: > 10 µM
[47]
  TGI: > 10 µM
[48]
  TGI: > 10 µM
[49]
  TGI: > 10 µM
[50]
  TGI: > 10 µM
[51]
  TGI: > 1 µM
[52]
  TGI: > 10 µM

## C[C@]12CC[C@H](O)CC1=CC[C@@H]1C2CC[C@]2(C)c3nn(-c4ccc(F)cc4)nc3CC12 (some centres not stated)
[1]
  TGI: > 100 µM
[2]
  TGI: > 100 µM
[3]
  TGI: > 100 µM
[4]
  TGI: > 100 µM
[5]
  TGI: > 100 µM
[6]
  TGI: > 100 µM
[7]
  TGI: > 100 µM
[8]
  TGI: > 100 µM
[9]
  TGI: > 100 µM
[10]
  TGI: > 100 µM
[11]
  TGI: > 100 µM
[12]
  TGI: > 100 µM
[53]
  TGI: > 100 µM
[13]
  TGI: > 100 µM
[14]
  TGI: > 100 µM
[15]
  TGI: 73 µM
[16]
  TGI: > 100 µM
[17]
  TGI: > 100 µM
[18]
  TGI: > 100 µM
[19]
  TGI: > 100 µM
[20]
  TGI: > 100 µM
[22]
  TGI: > 100 µM
[23]
  TGI: > 100 µM
[54]
  TGI: > 100 µM
[24]
  TGI: > 100 µM
[25]
  TGI: > 100 µM
[27]
  TGI: 74.4 µM
[28]
  TGI: > 100 µM
[29]
  TGI: > 100 µM
[30]
  TGI: > 100 µM
[31]
  TGI: > 100 µM
[32]
  TGI: > 100 µM
[33]
  TGI: > 100 µM
[55]
  TGI: > 100 µM
[34]
  TGI: 72.7 µM
[56]
  TGI: > 100 µM
[57]
  TGI: > 100 µM
[35]
  TGI: > 100 µM
[36]
  TGI: > 100 µM
[37]
  TGI: > 100 µM
[38]
  TGI: > 100 µM
[39]
  TGI: > 100 µM
[40]
  TGI: > 100 µM
[41]
  TGI: > 100 µM
[43]
  TGI: > 100 µM
[44]
  TGI: > 100 µM
[45]
  TGI: > 100 µM
[46]
  TGI: > 100 µM
[47]
  TGI: > 100 µM
[48]
  TGI: > 100 µM
[49]
  TGI: > 100 µM
[50]
  TGI: > 100 µM
[51]
  TGI: > 100 µM
[52]
  TGI: > 100 µM

## CCN(CC)c1ccc(/C=c2\nc(-c3ccccc3)n3c2nc2ccccc23)cc1
[1]
  TGI: > 100 µM
[2]
  TGI: > 100 µM
[3]
  TGI: > 100 µM
[4]
  TGI: 99.3 µM
[5]
  TGI: > 100 µM
[6]
  TGI: 35.4 µM
[7]
  TGI: > 100 µM
[8]
  TGI: 88.3 µM
[9]
  TGI: > 100 µM
[10]
  TGI: 45.8 µM
[11]
  TGI: > 100 µM
[58]
  TGI: 6.3 µM
[12]
  TGI: 48.8 µM
[53]
  TGI: 20.1 µM
[13]
  TGI: > 100 µM
[14]
  TGI: > 100 µM
[15]
  TGI: 5.98 µM
[16]
  TGI: 24.6 µM
[17]
  TGI: > 100 µM
[18]
  TGI: 52.3 µM
[19]
  TGI: > 100 µM
[20]
  TGI: 5.84 µM
[21]
  TGI: > 100 µM
[22]
  TGI: > 100 µM
[23]
  TGI: > 100 µM
[24]
  TGI: > 100 µM
[25]
  TGI: 21.9 µM
[26]
  TGI: > 100 µM
[28]
  TGI: > 100 µM
[29]
  TGI: > 100 µM
[31]
  TGI: > 100 µM
[32]
  TGI: > 100 µM
[33]
  TGI: 11.7 µM
[59]
  TGI: 26.6 µM
[55]
  TGI: 9.72 µM
[34]
  TGI: 23.3 µM
[56]
  TGI: 32.2 µM
[57]
  TGI: 18.8 µM
[35]
  TGI: 30.9 µM
[36]
  TGI: 37.9 µM
[37]
  TGI: > 100 µM
[38]
  TGI: > 100 µM
[39]
  TGI: 68.6 µM
[40]
  TGI: > 100 µM
[41]
  TGI: 60.5 µM
[42]
  TGI: 26.4 µM
[44]
  TGI: > 100 µM
[45]
  TGI: 11.4 µM
[46]
  TGI: 8.7 µM
[47]
  TGI: > 100 µM
[48]
  TGI: > 100 µM
[49]
  TGI: > 100 µM
[50]
  TGI: 61 µM
[51]
  TGI: > 100 µM
[52]
  TGI: 72.2 µM

## CN(C)Cc1cc(C(C)(C)C)cc(CNC2CCCCC2)c1O
[1]
  TGI: > 100 µM
[2]
  TGI: 34.6 µM
[3]
  TGI: > 100 µM
[4]
  TGI: 79.8 µM
[6]
  TGI: > 100 µM
[7]
  TGI: > 100 µM
[8]
  TGI: > 100 µM
[9]
  TGI: > 100 µM
[10]
  TGI: 57.1 µM
[11]
  TGI: > 100 µM
[58]
  TGI: 57.9 µM
[12]
  TGI: > 100 µM
[53]
  TGI: 33.3 µM
[13]
  TGI: 76.2 µM
[14]
  TGI: > 100 µM
[15]
  TGI: 54.6 µM
[16]
  TGI: > 100 µM
[17]
  TGI: > 100 µM
[18]
  TGI: 64 µM
[19]
  TGI: > 100 µM
[20]
  TGI: > 100 µM
[21]
  TGI: > 100 µM
[22]
  TGI: 44.6 µM
[23]
  TGI: 73.3 µM
[54]
  TGI: 60.4 µM
[24]
  TGI: 71.8 µM
[25]
  TGI: 30.2 µM
[26]
  TGI: > 100 µM
[27]
  TGI: > 100 µM
[28]
  TGI: > 100 µM
[29]
  TGI: 59.7 µM
[31]
  TGI: 33.5 µM
[32]
  TGI: > 100 µM
[33]
  TGI: 43.7 µM
[59]
  TGI: 69.4 µM
[55]
  TGI: > 100 µM
[34]
  TGI: 23.7 µM
[56]
  TGI: > 100 µM
[57]
  TGI: 71.5 µM
[35]
  TGI: > 100 µM
[36]
  TGI: 34.4 µM
[37]
  TGI: > 100 µM
[38]
  TGI: > 100 µM
[39]
  TGI: > 100 µM
[40]
  TGI: > 100 µM
[42]
  TGI: 76.5 µM
[43]
  TGI: > 100 µM
[44]
  TGI: > 100 µM
[45]
  TGI: 63.5 µM
[46]
  TGI: > 100 µM
[47]
  TGI: 47.4 µM
[48]
  TGI: > 100 µM
[49]
  TGI: > 100 µM
[50]
  TGI: > 100 µM
[51]
  TGI: > 100 µM
[52]
  TGI: > 100 µM
